This is an account of results in patent publication US8710224B2, “Heterocyclic compounds as CCR2B antagonists” (AstraZeneca AB, priority 2004, dated 2014).

SMILES strings stand for the structures.

A word on the IC50: it is the concentration that gives 50% inhibition.

T1 sequence (P51681 whole entry): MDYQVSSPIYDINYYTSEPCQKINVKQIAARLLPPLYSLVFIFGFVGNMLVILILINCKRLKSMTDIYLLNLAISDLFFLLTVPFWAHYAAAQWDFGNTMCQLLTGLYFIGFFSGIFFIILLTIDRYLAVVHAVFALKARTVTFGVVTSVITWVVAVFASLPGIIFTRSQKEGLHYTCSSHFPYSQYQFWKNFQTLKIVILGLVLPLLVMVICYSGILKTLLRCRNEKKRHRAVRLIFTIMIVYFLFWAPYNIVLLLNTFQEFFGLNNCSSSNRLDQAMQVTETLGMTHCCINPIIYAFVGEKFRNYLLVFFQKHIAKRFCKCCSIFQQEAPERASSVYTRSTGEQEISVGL

This assay has as its target T1, recombinant human CCR5 receptor (Homo sapiens, UniProt P51681).
T1 construct: expressed in transfected cells; host or cells: Chinese hamster ovary (CHO) cells; membranes
The assay can be described thus: Radioligand binding assay for inhibition of the binding of MIP-1α. The conditions noted are these: displacement of 0.1 nM iodinated MIP-1α; membranes of Chinese hamster ovary cells expressing CCR5. As to the method:
Biological Assay for the Ability of Compounds to Inhibit the Binding of MIP-1α This ability is assessed using an in vitro radioligand binding assay. Membranes are prepared from Chinese hamster ovary cells which express the recombinant human CCR5 receptor. These membranes are incubated with 0.1 nM iodinated MIP-1α, scintillation proximity beads and various concentrations of the compounds of the invention in 96-well plates. The amount of iodinated MIP-1α bound to the receptor is then determined by scintillation counting.
For `O=C(Nc1ccc(Cl)c(Cl)c1)N1CCN(C(=O)[C@@H]2CCCN(CCc3ccccc3)C2)CC1` [Example 89, N-(3,4-dichlorophenyl)-4-{[(3R)-1-(2-phenylethyl)piperidin-3-yl]carbonyl}piperazine-1-carboxamide], the IC50 was below 10 µM. For the molecule `CC(C)N1CCN[C@@H](C(=O)N2CCN(C(=O)Nc3cc(F)cc(C(F)(F)F)c3)CC2)C1` [Example 288, N-[3-Fluoro-5-(trifluoromethyl)phenyl]-4-{[(2R)-4-isopropylpiperazin-2-yl]carbonyl}piperazine-1-carboxamide], the IC50 is below 10 µM. Take `O=C(Nc1ccc(Cl)c(Cl)c1)N1CCN(C(=O)[C@H]2CN(C3CCCCC3)CCN2)CC1` [Example 277, 4-{[(2R)-4-Cyclohexylpiperazin-2-yl]carbonyl}-N-(3,4-dichlorophenyl)piperazine-1-carboxamide]: the IC50 is below 10 µM. For `O=C(Nc1ccccc1)N1CCN(C[C@@H]2CCCN(CCc3ccc(Cl)cc3)C2)CC1` [Example 249, 4-[[(3R)-1-[2-(4-chlorophenyl)ethyl]-3-piperidyl]methyl]-N-phenyl-piperazine-1-carboxamide], the IC50 is below 10 µM. For the molecule `CC(C)N1CCC[C@@H](CN2CCN(C(=O)Nc3ccc(Cl)c(Cl)c3)CC2)C1` [Example 84, N-(3,4-dichlorophenyl)-4-{[(3S)-1-isopropylpiperidin-3-yl]methyl}piperazine-1-carboxamide], the IC50 was below 10 µM. Consider `O=C(Nc1ccc(Cl)c(Cl)c1)N1CCN(C[C@@H]2CCCN(C3Cc4ccccc4C3)C2)CC1` [Example 161, N-(3,4-dichlorophenyl)-4-{[(3S)-1-(2,3-dihydro-1H-inden-2-yl)piperidin-3-yl]methyl}piperazine-1-carboxamide], for which the IC50 was below 10 µM. `O=C(Nc1ccc(Cl)c(Cl)c1)N1CCN(C(=O)[C@H]2CN(C3CCSCC3)CCN2)CC1` [Example 280, N-(3,4-Dichlorophenyl)-4-{[(2R)-4-(tetrahydro-2H-thiopyran-4-yl)piperazin-2-yl]carbonyl}piperazine-1-carboxamide]: the IC50 was below 10 µM. Consider `COc1ccc(CN2CCC[C@@H](CN3CCN(C(=O)Nc4ccc(Cl)c(Cl)c4)CC3)C2)cc1` [Example 47, N-(3,4-dichlorophenyl)-4-{[(3R)-1-(4-methoxybenzyl)piperidin-3-yl]methyl}piperazine-1-carboxamide], for which the concentration for half-maximal inhibition (IC50) was below 10 µM.

Turning to `O=C(Nc1ccc(Cl)c(Cl)c1)N1CCN(C(=O)[C@H]2CN(C3CCCC3)CCN2)CC1` [Example 276, 4-{[(2R)-4-Cyclopentylpiperazin-2-yl]carbonyl}-N-(3,4-dichlorophenyl)piperazine-1-carboxamide], the IC50 was below 10 µM.

On to `O=C(Nc1ccccc1)N1CCN(C[C@@H]2CCCN(CCc3ccc(F)cc3)C2)CC1` [Example 248, 4-[[(3R)-1-[2-(4-fluorophenyl)ethyl]-3-piperidyl]methyl]-N-phenyl-piperazine-1-carboxamide], for which the IC50 is below 10 µM.

Take `C[C@H](CC1CCCC1)N1CCO[C@@H](CN2CCN(C(=O)Nc3ccc(F)c(Cl)c3)CC2)C1` [Example 234, N-(3-chloro-4-fluorophenyl)-4-({(2S)-4-[(1R)-2-cyclopentyl-1-methylethyl]morpholin-2-yl}methyl)piperazine-1-carboxamide]: the IC50 is below 10 µM. The figure for `O=C(Nc1ccc(Cl)c(Cl)c1)N1CCN(C[C@@H]2CCCN(Cc3c[nH]nc3-c3ccccc3)C2)CC1` [Example 200, N-(3,4-Dichlorophenyl)-4-({(3R)-1-[(3-phenyl-1H-pyrazol-4-yl)methyl]piperidin-3-yl}methyl)piperazine-1-carboxamide] is below 10 µM; for `CC(C)N1CCN[C@@H](C(=O)N2CCN(C(=O)Nc3ccc(C#N)c(C(F)(F)F)c3)CC2)C1` [Example 292, N-[4-Cyano-3-(trifluoromethyl)phenyl]-4-{[(2R)-4-isopropylpiperazin-2-yl]carbonyl}piperazine-1-carboxamide] it is below 10 µM. To `O=C(Nc1ccccc1)N1CCN(C[C@@H]2CCCN(CCc3ccc(F)cc3Cl)C2)CC1` [Example 251, 4-[[(3R)-1-[2-(2-chloro-4-fluoro-phenyl)ethyl]-3-piperidyl]methyl]-N-phenyl-piperazine-1-carboxamide] belongs below 10 µM; to `O=C(Nc1ccc(Cl)c(Cl)c1)N1CCN(C[C@@H]2CCCN(Cc3c[nH]nc3-c3cccs3)C2)CC1` [Example 199, N-(3,4-Dichlorophenyl)-4-[((3R)-1-{[3-(2-thienyl)-1H-pyrazol-4-yl]methyl}piperidin-3-yl)methyl]piperazine-1-carboxamide], below 10 µM. Take `O=C(Nc1ccccc1)N1CCN(CC2CCCN(C3CC3)C2)CC1` (stereo in doubt) [Example 183, N-Phenyl-4-{[(3R)-1-(2-cyclopropyl)piperidin-3-yl]methyl}piperazine-1-carboxamide]: the IC50 is below 10 µM. Turning to `CC(C)N1CCN[C@@H](C(=O)N2CCN(C(=O)Nc3cc(Cl)cc(Cl)c3)CC2)C1` [Example 287, N-(3,5-Dichlorophenyl)-4-{[(2R)-4-isopropylpiperazin-2-yl]carbonyl}piperazine-1-carboxamide], the IC50 is below 10 µM. With `CS(=O)(=O)c1ccc(CCCN2CCC[C@@H](CN3CCN(C(=O)Nc4cccc(Cl)c4)CC3)C2)cc1` [Example 327, N-(3-Chlorophenyl)-4-[((3R)-1-{3-[4-(methylsulfonyl)phenyl]propyl}piperidin-3-yl)methyl]piperazine-1-carboxamide], the IC50 was below 10 µM.

With `CC(Cc1ccccc1)N1CCCC(CN2CCN(C(=O)Nc3ccccc3)CC2)C1` (stereo in doubt) [Example 246, 4-[[(3R)-1-(1-methyl-2-phenyl-ethyl)-3-piperidyl]methyl]-N-phenyl-piperazine-1-carboxamide], the IC50 was below 10 µM. For the molecule `O=C(Nc1ccc(C(F)(F)F)c(Cl)c1)N1CCN(C[C@@H]2CCCN(C3CC3)C2)CC1` [Example 106, N-[3-chloro-4-(trifluoromethyl)phenyl]-4-{[(3S)-1-cyclopropylpiperidin-3-yl]methyl}piperazine-1-carboxamide], the IC50 was below 10 µM. On to `CCN1CCN[C@@H](C(=O)N2CCN(C(=O)Nc3ccc(Cl)cc3)CC2)C1` [Example 131, N-(4-Chlorophenyl)-4-{[(2R)-4-ethylpiperazin-2-yl]carbonyl}piperazine-1-carboxamide], for which the IC50 is below 10 µM. As to `CCC(C)N1CCN[C@@H](C(=O)N2CCN(C(=O)Nc3ccc(Cl)c(Cl)c3)CC2)C1` (stereo partly drawn) [Example 220, 4-{[(2R)-4-sec-butylpiperazin-2-yl]carbonyl}-N-(3,4-dichlorophenyl)piperazine-1-carboxamide], the IC50 was below 10 µM. On to `O=C(Nc1ccc(Cl)c(Cl)c1)N1CCN(C(=O)[C@H]2CN(CC3CCOC3)CCN2)CC1` (stereo partly drawn) [Example 271, N-(3,4-dichlorophenyl)-4-{[(2R)-4-(tetrahydrofuran-3-ylmethyl)piperazin-2-yl]carbonyl}piperazine-1-carboxamide], for which the IC50 is below 10 µM.

Turning to `CC(C)N1CCN[C@@H](C(=O)N2CCN(C(=O)Nc3ccc(C(F)(F)F)cn3)CC2)C1` [Example 311, 4-{[(2R)-4-isopropylpiperazin-2-yl]carbonyl}-N-[5-(trifluoromethyl)pyridin-2-yl]piperazine-1-carboxamide], the IC50 is below 10 µM. On to `O=C(Nc1ccc(Cl)c(Cl)c1)N1CCN(CC2CCN([C@H]3CC[C@](O)(c4ccncc4)CC3)C2)CC1` (some centres unmarked) [Example 150, N-(3,4-dichlorophenyl)-4-{[1-(4-hydroxy-4-pyridin-4-ylcyclohexyl)pyrrolidin-3-yl]methyl}piperazine-1-carboxamide], for which the IC50 is below 10 µM. In the case of `O=C(Nc1ccccc1)N1CCN(C[C@@H]2CCCN(CCc3ccc(Cl)c(Cl)c3)C2)CC1` [Example 253, 4-[[(3R)-1-[2-(3,4-dichlorophenyl)ethyl]-3-piperidyl]methyl]-N-phenyl piperazine-1-carboxamide], the IC50 is below 10 µM. For `COc1ccc(CN2CCC[C@@H](CN3CCN(C(=O)Nc4ccccc4)CC3)C2)cn1` [Example 247, 4-({(3R)-1-[(6-methoxypyridin-3-yl)methyl]piperidin-3-yl}methyl)-N-phenyl piperazine-1-carboxamide], the IC50 is below 10 µM. On to `O=C(Nc1ccc(Cl)c(Cl)c1)N1CCN(C[C@@H]2CCCN(C3CCOCC3)C2)CC1` [Example 172, N-(3,4-Dichlorophenyl)-4-{[(3S)-1-(tetrahydro-2H-pyran-4-yl)piperidin-3-yl]methyl}piperazine-1-carboxamide], for which the IC50 was below 10 µM.

`Cc1nn(C)cc1CN1CCC[C@@H](CN2CCN(C(=O)Nc3ccc(Cl)c(Cl)c3)CC2)C1` [Example 197, N-(3,4-Dichlorophenyl)-4-({(3R)-1-[(1,3-dimethyl-1H-pyrazol-4-yl)methyl]piperidin-3-yl}methyl)piperazine-1-carboxamide]: the IC50 is below 10 µM. Take `O=C1CN(C(=O)Nc2ccc(Cl)c(Cl)c2)CCN1CC1CCCN(Cc2ccccc2)C1` (centres unmarked) [Example 42, 4-[(1-benzylpiperidin-3-yl)methyl]-N-(3,4-dichlorophenyl)-3-oxopiperazine-1-carboxamide]: the IC50 was below 10 µM.

With `CC(CC(C)(C)O)N1CCN[C@@H](C(=O)N2CCN(C(=O)Nc3ccc(Cl)c(Cl)c3)CC2)C1` (stereo partly drawn) [Example 269, N-(3,4-dichlorophenyl)-4-{[(2R)-4-(3-hydroxy-1,3-dimethylbutyl)piperazin-2-yl]carbonyl}piperazine-1-carboxamide], the IC50 is below 10 µM. Turning to `CC(C)N1CCN[C@@H](C(=O)N2CCN(C(=O)Nc3ccc(Cl)cc3)CC2)C1` [Example 215, N-(4-chlorophenyl)-4-{[(2R)-4-isopropylpiperazin-2-yl]carbonyl}piperazine-1-carboxamide], the IC50 is below 10 µM.
